Source: ChEMBL document CHEMBL1201862, “PubChem BioAssay data set” (2004)
The source made the active and inactive calls.

Key:
[1] = biological target: T1, Polyadenylate-binding protein 1 (Homo sapiens, UniProt P11940); experiment: MLLE domain peptide-binding blockers, IC50 – biochemical, fluorescence polarization, FITC-PAM2 peptide, dose response (AID 602259); format: functional; settings: read-out: IC50_Mean
[2] = biological target: T1, Polyadenylate-binding protein 1; experiment: MLLE binding blockers, Cy5 peptide tracer – biochemical, fluorescence polarization, Cy5-PAM2 peptide, secondary, miRNA deadenylation inhibitor project, dose response (AID 602260); format: functional; settings: read-out: IC50_Mean
[3] = test system: Streptococcus sp. 'group A'; experiment: Streptococcus pyogenes SK(-)GAS viability under kanamycin – luminescence, BacTiterGlo, confirmation, counter-screen for streptokinase expression inhibitor project, dose response (AID 1900); format: functional, organism-based
Streptokinase A = biological target: T2, Streptokinase A (Streptococcus pyogenes serotype M1, UniProt P10520); experiment: viability-normalized secreted streptokinase activity reduction – plasminogen activation absorbance, OD405, dose response (AID 1914); format: functional, Streptococcus pyogenes M1 GAS;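 note: secreted streptokinase activity via plasminogen activation per viability signal from cell pellet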
T2 sequence (P10520 whole entry): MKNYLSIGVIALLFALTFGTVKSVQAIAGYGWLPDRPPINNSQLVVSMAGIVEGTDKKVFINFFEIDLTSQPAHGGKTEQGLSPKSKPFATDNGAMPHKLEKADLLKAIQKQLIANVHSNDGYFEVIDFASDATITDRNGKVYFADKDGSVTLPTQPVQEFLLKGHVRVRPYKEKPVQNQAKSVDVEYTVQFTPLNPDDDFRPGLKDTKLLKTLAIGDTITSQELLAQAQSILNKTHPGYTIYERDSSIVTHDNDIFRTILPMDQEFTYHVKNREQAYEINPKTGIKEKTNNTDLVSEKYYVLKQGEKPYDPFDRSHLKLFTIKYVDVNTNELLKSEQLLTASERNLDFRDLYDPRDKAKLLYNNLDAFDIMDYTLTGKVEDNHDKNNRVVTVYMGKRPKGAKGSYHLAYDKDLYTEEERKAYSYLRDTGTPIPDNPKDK

[4] = microbe, parasite or virus in culture; format: functional; settings: Mycobacterium tuberculosis
Protein RecA = biological target: T3, Protein RecA (Mycobacterium tuberculosis, UniProt P9WHJ3); experiment: Fluorescence Cell-Free Homogeneous Dose Retest to Identify Inhibitors of RecA-Intein Splicing Activity. [Related pubchem assays (depositor defined):AID2097, AID2223, AID489010, AID492950]; format: functional
T3 sequence (P9WHJ3 whole entry): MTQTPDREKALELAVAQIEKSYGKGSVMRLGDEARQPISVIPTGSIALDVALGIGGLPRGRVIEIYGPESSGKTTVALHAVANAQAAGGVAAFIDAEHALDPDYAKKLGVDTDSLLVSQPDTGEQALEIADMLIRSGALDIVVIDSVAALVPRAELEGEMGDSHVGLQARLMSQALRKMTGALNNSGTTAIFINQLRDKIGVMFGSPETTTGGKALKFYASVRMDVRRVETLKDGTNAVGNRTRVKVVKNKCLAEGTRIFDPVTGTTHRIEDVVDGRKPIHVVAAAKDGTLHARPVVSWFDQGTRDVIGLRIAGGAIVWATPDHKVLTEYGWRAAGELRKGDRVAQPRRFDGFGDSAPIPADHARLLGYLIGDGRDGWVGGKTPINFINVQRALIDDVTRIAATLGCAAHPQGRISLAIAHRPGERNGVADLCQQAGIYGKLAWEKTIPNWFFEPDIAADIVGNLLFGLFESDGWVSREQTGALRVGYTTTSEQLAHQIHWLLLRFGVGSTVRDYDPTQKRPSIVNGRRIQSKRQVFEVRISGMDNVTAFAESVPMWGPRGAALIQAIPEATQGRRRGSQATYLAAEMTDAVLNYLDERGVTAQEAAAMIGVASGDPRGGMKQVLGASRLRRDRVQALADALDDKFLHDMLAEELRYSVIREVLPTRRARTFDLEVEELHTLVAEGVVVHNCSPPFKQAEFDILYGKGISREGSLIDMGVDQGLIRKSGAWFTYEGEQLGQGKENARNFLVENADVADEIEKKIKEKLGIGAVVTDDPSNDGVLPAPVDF

Streptococcus = experiment: GAS UMAA2166 growth inhibition – luminescence, BacTiterGlo, counter-screen for streptokinase expression inhibitor project, dose response (AID 1915); format: functional, organism-based;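 note: potency for reduction of bacterial viability or growth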
[5] = biological target: T4, Replicative DNA helicase DnaB (Mycobacterium tuberculosis, UniProt P9WMR3); experiment: DnaB intein splicing inhibitors, dose response, biochemical, cell-free fluorescence (AID 449749); format: functional
T4 sequence (P9WMR3 whole entry): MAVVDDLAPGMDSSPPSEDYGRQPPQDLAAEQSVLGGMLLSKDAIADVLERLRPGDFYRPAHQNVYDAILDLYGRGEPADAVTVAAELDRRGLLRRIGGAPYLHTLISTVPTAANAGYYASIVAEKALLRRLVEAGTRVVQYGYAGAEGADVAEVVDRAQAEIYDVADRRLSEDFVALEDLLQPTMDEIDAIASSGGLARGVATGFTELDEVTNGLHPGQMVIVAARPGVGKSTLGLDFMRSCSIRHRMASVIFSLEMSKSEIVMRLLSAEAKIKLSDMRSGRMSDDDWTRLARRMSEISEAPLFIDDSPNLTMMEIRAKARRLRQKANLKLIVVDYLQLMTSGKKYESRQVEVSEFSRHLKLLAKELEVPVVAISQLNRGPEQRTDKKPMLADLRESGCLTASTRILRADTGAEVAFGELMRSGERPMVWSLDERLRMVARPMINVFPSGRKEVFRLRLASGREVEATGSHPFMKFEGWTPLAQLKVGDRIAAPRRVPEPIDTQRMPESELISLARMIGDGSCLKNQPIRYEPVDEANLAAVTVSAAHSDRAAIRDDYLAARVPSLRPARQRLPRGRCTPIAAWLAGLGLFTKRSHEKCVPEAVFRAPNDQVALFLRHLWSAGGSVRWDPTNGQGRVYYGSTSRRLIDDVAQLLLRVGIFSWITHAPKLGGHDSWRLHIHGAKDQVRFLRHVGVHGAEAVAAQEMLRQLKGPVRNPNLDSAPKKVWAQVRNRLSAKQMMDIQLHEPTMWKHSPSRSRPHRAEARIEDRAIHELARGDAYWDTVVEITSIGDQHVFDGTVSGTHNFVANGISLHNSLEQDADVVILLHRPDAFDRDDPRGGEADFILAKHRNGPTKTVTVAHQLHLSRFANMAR

H9c2 = experiment: cells; format: functional, cell-based; settings: Rattus norvegicus, H9c2, Myocardium;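 note: confirmatory concentration-response retest of ultra-high-throughput screening hits for modulation of myocardial damage; cell death induced by hydrogen peroxide oxidative stress; compound pretreatment for 60 min then peroxide exposure for 2 h; potency is for protecting the cells against peroxide damage rather than for killing them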
cells = format: functional
[6] = biological target: T5, Zinc finger protein mex-5 (Caenorhabditis elegans, UniProt Q9XUB2); experiment: potency of MEX-5 RNA-binding blockers – biochemical, C. elegans, fluorescence polarization, dose response (AID 1960)
T5 sequence (Q9XUB2 whole entry): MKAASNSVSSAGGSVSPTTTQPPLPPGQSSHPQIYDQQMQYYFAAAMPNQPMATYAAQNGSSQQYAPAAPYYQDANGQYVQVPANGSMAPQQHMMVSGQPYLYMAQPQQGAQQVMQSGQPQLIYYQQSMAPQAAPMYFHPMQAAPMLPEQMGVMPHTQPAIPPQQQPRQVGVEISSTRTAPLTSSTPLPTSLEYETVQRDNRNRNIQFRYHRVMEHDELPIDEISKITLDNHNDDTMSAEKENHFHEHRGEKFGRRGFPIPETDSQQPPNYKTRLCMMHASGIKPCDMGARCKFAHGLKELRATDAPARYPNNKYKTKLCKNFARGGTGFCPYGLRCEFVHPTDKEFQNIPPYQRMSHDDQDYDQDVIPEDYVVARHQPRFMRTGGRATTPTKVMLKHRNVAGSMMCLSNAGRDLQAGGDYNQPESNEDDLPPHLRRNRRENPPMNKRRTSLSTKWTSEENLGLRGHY

[7] = biological target: T6, RNA-binding protein pos-1 (Caenorhabditis elegans, UniProt G5EF15); experiment: disruptors of C. elegans POS-1 RNA interaction – biochemical, fluorescence polarization, dose response (AID 1964);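 note: purified POS-1 fused to maltose binding protein made in E. coli; potency of compounds blocking POS-1 binding to fluorescent RNA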
T6 sequence (G5EF15 whole entry): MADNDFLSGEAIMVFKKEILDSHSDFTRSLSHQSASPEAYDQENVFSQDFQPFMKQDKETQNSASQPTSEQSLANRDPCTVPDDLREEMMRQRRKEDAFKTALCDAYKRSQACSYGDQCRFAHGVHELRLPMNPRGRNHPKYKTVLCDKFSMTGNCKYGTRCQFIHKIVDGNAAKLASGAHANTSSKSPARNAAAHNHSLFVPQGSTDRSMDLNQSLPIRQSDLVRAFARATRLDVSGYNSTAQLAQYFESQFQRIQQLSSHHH

[8] = Luminescence Cell-Based Dose Retest to Confirm Inhibitors of Cancer Stem Cells. [Related pubchem assays (depositor defined):AID2717, AID2721]; format: functional; settings: Homo sapiens
[9] = biological target: T7, Corticotropin-releasing factor receptor 2/Corticotropin-releasing factor-binding protein (Homo sapiens, UniProt P24387+Q13324); experiment: activators of CRF receptor 2 with binding protein – uHTS hits, confirmation (AID 602473); format: functional; settings: read-out: EC50_Mean
T7 sequence (Q13324 whole entry): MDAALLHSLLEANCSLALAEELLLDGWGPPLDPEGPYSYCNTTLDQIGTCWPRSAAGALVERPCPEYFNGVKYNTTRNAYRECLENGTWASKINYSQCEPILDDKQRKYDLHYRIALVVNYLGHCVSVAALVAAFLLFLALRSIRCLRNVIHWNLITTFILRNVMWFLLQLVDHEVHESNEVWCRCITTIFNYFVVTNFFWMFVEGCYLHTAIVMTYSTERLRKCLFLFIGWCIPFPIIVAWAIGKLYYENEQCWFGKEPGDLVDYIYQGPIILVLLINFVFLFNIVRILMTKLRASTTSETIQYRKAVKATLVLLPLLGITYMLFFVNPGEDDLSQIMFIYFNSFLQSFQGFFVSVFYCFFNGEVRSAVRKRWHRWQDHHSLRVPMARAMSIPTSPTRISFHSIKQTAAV
T7 sequence (P24387 whole entry): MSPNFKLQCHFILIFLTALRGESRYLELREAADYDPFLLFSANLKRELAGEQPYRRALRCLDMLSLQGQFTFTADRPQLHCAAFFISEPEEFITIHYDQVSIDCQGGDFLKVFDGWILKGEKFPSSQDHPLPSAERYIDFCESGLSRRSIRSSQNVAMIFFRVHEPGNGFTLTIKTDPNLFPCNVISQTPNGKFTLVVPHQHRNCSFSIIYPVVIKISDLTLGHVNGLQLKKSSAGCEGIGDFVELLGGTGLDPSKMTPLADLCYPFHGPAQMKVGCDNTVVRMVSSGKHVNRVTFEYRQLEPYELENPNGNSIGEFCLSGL

[10] = biological target: T7, Corticotropin-releasing factor receptor 2/Corticotropin-releasing factor-binding protein; experiment: Dose Response confirmation of uHTS hits for small molecule antagonists of the CRF-binding protein and CRF-R2 receptor complex.; format: functional; settings: read-out: IC50_Mean

T1 sequence (P11940 whole entry, the tested form may be a part): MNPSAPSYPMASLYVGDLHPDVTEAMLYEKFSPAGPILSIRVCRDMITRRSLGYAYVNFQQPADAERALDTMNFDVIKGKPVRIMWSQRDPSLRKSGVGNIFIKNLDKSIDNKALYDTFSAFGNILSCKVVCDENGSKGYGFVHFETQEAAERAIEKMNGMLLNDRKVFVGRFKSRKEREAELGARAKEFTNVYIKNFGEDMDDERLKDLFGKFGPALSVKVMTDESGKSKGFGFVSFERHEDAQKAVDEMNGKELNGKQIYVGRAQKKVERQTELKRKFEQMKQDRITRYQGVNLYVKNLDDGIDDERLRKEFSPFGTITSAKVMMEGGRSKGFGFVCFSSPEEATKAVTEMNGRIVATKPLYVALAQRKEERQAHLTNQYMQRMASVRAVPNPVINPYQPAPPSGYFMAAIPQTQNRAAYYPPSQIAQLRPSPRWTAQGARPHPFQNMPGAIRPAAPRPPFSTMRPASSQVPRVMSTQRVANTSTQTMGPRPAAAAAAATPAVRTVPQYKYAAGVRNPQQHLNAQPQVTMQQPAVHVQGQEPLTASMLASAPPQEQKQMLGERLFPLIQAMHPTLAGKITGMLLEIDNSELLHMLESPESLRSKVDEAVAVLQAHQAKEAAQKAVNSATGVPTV

O=C(NC(=S)N1CCCCCC1)c1ccccc1Cl
IC50 [1]: > 66 µM (inactive)
IC50 [2]: > 66 µM (inactive)

COc1ccc(-c2oc(NC(=O)CCl)c(C#N)c2-c2ccc(OC)cc2)cc1
EC50 [3]: 1.18 µM (active)
EC50 (Streptokinase A): 1.16 µM (active)
CC50 [4]: 10.1 µM (active)
EC50 (Protein RecA): 0.67 µM (active)
EC50 (Streptococcus): > 150 µM (not active)
AC50 [5]: 0.416 µM (active)

COc1ccc(C(=O)COC(=O)c2ccc([N+](=O)[O-])s2)cc1OC
IC50 (H9c2): > 79 µM (inactive)
IC50 (cells): 10.6 µM (active)

COC(=O)c1ccc(C(C(=O)NCc2ccccc2)N(Cc2cccs2)C(=O)c2cnccn2)cc1 (configuration not stated)
IC50 (H9c2): 8.82 µM (active)

CCC(CC)C(=O)Nc1cc(C)c2c(=O)oc3ccccc3c2n1
IC50 (H9c2): > 79 µM (inactive)

CCc1ccc(N2C(=O)NC(=O)/C(=C\c3cc(C)n(-c4cc(C(=O)O)cc(C(=O)O)c4)c3C)C2=O)cc1
EC50 [6]: > 300 µM (not active)
EC50 [7]: > 300 µM (not active)

CCC(ONc1ccccc1C(F)(F)F)(C(=O)NN(C)C)c1ccccc1 (configuration not stated)
IC50 (H9c2): 33.3 µM (inactive)

CCOC(=O)C1CCN(c2cc3c(cc2NC(=O)c2ccccc2Cl)n(C)c(=O)n3C)CC1
IC50 (H9c2): > 79 µM (inactive)

COc1ccc(C2=NN(C(=O)COC(=O)c3ccc(S(C)(=O)=O)c([N+](=O)[O-])c3)C(c3ccco3)C2)cc1 (configuration not stated)
AC50 [8]: 1.52 µM (active)
CC50 [4]: 9.73 µM (active)

O=C(O)CN1C(=O)C2C3CC(C2C1=O)C1C(c2ccc(F)cc2)c2sc(O)nc2SC31 (configuration not stated)
IC50 [1]: > 66 µM (inactive)
IC50 [2]: > 66 µM (inactive)

CC1CCN(C(=O)CSc2nncn2-c2ccccn2)CC1
IC50 [1]: > 66 µM (inactive)
IC50 [2]: > 66 µM (inactive)

CC(C)C1Nc2ccc(S(N)(=O)=O)cc2C2C=CCC21 (configuration not stated)
EC50 [6]: 30.4 µM (active)
EC50 [7]: 52.4 µM (active)

COc1ccc(OCC(O)Cn2c(Br)nc3c2c(=O)[nH]c(=O)n3C)cc1 (configuration not stated)
IC50 (H9c2): 16.4 µM (active)

Cc1cc2cc(CNC(=O)Cc3cccs3)ccc2n1C
IC50 [1]: > 66 µM (inactive)
IC50 [2]: > 66 µM (inactive)

CC(C)OCCCNC(=O)CCC(=O)NNc1nc2ccccc2c2nc(-c3ccccc3)nn12
IC50 (H9c2): 13.5 µM (active)

O=C(COc1ccc(Cl)cc1)NCc1nnc(O)c2ccccc12
IC50 (H9c2): > 79 µM (inactive)

CN(C)/C=C/C(=O)c1cnc(-c2ccccc2Cl)s1
EC50 [6]: > 300 µM (not active)
EC50 [7]: > 300 µM (not active)

Cc1ccccc1NC(=O)CSC(=O)c1ccccc1
IC50 [1]: > 66 µM (inactive)
IC50 [2]: > 66 µM (inactive)

N#CC1=C(N)OC2=C(C(=O)CC(c3ccccc3)C2)C1c1ccc2c(c1)OCO2 (configuration not stated)
EC50 [9]: > 53 µM (inactive)
EC50 [6]: > 300 µM (not active)
EC50 [7]: > 300 µM (not active)
IC50 [10]: > 47.1 µM (inactive)
